Values after ≈ are worked out from the molar mass of the structure shown.
Legend:
Type in all cases: functional
Enterococcus faecium [1] = assay: Antibacterial activity against vancomycin-resistant Enterococcus faecium ATCC51559 assessed as bacterial growth inhibition incubated for 20 hrs by CLSI based broth microdilution method
Escherichia coli [2] = assay: Antibacterial activity against wild-type Escherichia coli BW25113 assessed as bacterial growth inhibition incubated for 20 hrs by CLSI based broth microdilution method
Staphylococcus aureus [3] = assay: Antibacterial activity against penicillin-resistant Staphylococcus aureus ATCC31007 assessed as bacterial growth inhibition incubated for 20 hrs by CLSI based broth microdilution method
Staphylococcus aureus [4] = assay: Antibacterial activity against methicillin-resistant Staphylococcus aureus ATCC43300 assessed as bacterial growth inhibition incubated for 20 hrs by CLSI based broth microdilution method
Escherichia coli [5] = assay: Antibacterial activity against penicillin-susceptible Escherichia coli ATCC25922 assessed as bacterial growth inhibition incubated for 20 hrs by CLSI based broth microdilution method
Klebsiella pneumoniae = assay: Antibacterial activity against Klebsiella pneumoniae ATCC BAA-1902 assessed as bacterial growth inhibition incubated for 20 hrs by CLSI based broth microdilution method
Enterococcus faecalis [6] = assay: Antibacterial activity against vancomycin-susceptible Enterococcus faecalis ATCC29212 assessed as bacterial growth inhibition incubated for 20 hrs by CLSI based broth microdilution method
Staphylococcus aureus [7] = assay: Antibacterial activity against Staphylococcus aureus clinical isolate assessed as bacterial growth inhibition incubated for 20 hrs by CLSI based broth microdilution method
[8] = system: Staphylococcus epidermidis; assay: Antibacterial activity against penicillin-resistant Staphylococcus epidermidis clinical isolate assessed as bacterial growth inhibition incubated for 20 hrs by CLSI based broth microdilution method
Bacillus subtilis = assay: Antibacterial activity against penicillin-susceptible Bacillus subtilis ATCC9372 assessed as bacterial growth inhibition incubated for 20 hrs by CLSI based broth microdilution method
Staphylococcus aureus [9] = assay: Antibacterial activity against erythromycin-susceptible Staphylococcus aureus ATCC25923 assessed as bacterial growth inhibition incubated for 20 hrs by CLSI based broth microdilution method
Acinetobacter baumannii = assay: Antibacterial activity against Acinetobacter baumannii ATCC19606 assessed as bacterial growth inhibition incubated for 20 hrs by CLSI based broth microdilution method
Streptococcus pyogenes [10] = assay: Antibacterial activity against erythromycin-resistant Streptococcus pyogenes 2 clinical isolate assessed as bacterial growth inhibition incubated for 20 hrs by CLSI based broth microdilution method
Bacillus pumilus = assay: Antibacterial activity against penicillin-susceptible Bacillus pumilus CMCC63202 assessed as bacterial growth inhibition incubated for 20 hrs by CLSI based broth microdilution method
Enterococcus faecalis [11] = assay: Antibacterial activity against vancomycin-resistant Enterococcus faecalis ATCC51299 assessed as bacterial growth inhibition incubated for 20 hrs by CLSI based broth microdilution method
Streptococcus pyogenes [12] = assay: Antibacterial activity against erythromycin-susceptible Streptococcus pyogenes 1 assessed as bacterial growth inhibition incubated for 20 hrs by CLSI based broth microdilution method
Enterococcus faecium [13] = assay: Antibacterial activity against vancomycin-susceptible Enterococcus faecium ATCC19434 assessed as bacterial growth inhibition incubated for 20 hrs by CLSI based broth microdilution method

Row | SMILES | MIC (Enterococcus faecium [1]) [µg/mL] | MIC (Escherichia coli [2]) [µg/mL] | MIC (Staphylococcus aureus [3]) [µg/mL] | MIC (Staphylococcus aureus [4]) [µg/mL] | MIC (Escherichia coli [5]) [µg/mL] | MIC (Klebsiella pneumoniae) [µg/mL] | MIC (Enterococcus faecalis [6]) [µg/mL] | MIC (Staphylococcus aureus [7]) [µg/mL] | MIC [8] [µg/mL] | MIC (Bacillus subtilis) [µg/mL] | MIC (Staphylococcus aureus [9]) [µg/mL] | MIC (Acinetobacter baumannii) [µg/mL] | MIC (Streptococcus pyogenes [10]) [µg/mL] | MIC (Bacillus pumilus) [µg/mL] | MIC (Enterococcus faecalis [11]) [µg/mL] | MIC (Streptococcus pyogenes [12]) [µg/mL] | MIC (Enterococcus faecium [13]) [µg/mL]
1 | CCCCCOc1ccc(/C=C/c2cc(-c3ccccc3)c[n+](C)c2-c2ccccc2)cc1.[I-] | 2 | 4 | 1 | 1 | 4 | 8 | 2 | 1 | 1 | 0.5 | 0.25 | 2 | 2 | 1 | 2 | 2 | 2
2 | C[n+]1cc(-c2ccccc2)c(/C=C/c2ccc(N3CCCCC3)cc2)cc1-c1ccc2ccccc2c1.[I-] | 2 | 4 | 2 | 1 | 64 | 16 | 1 | 0.5 | 2 | 1 | 0.5 | 2 | 2 | 0.5 | 2 | 2 | 1
3 | C[n+]1cc(-c2ccccc2)cc(/C=C/c2ccc(F)cc2)c1-c1ccccc1.[I-] | 64 | > 64 | 64 | 8 | > 64 | > 64 | 64 | 8 | 64 | 8 | 2 | 32 | 8 | 32 | > 64 | 8 | 64
4 | Cc1ccccc1-c1c[n+](C)c(-c2ccc(C(C)(C)C)cc2)cc1/C=C/c1ccc(F)cc1.[I-] | 1 | 4 | 1 | 0.5 | 8 | 8 | 0.5 | 0.25 | 1 | 0.5 | 1 | 2 | 2 | 0.5 | 2 | 2 | 1
5 | CCCOc1ccc(/C=C/c2cc(-c3ccc(C(C)(C)C)cc3)[n+](C)cc2-c2ccccc2)cc1.[I-] | 1 | 8 | 1 | 0.5 | 4 | 8 | 2 | 0.5 | 1 | 0.125 | 0.125 | 2 | 2 | 1 | 1 | 2 | 1
6 | CCCCOc1ccc(/C=C/c2cc(-c3ccccc3)c[n+](C)c2-c2ccccc2)cc1.[I-] | 4 | 8 | 16 | 1 | 8 | 16 | 4 | 1 | 2 | 1 | 0.5 | 4 | 2 | 1 | 4 | 2 | 2
7 | CC(C)c1ccc(/C=C/c2cc(-c3ccccc3)c[n+](C)c2-c2ccccc2)cc1.[I-] | 4 | 32 | 4 | 2 | 16 | 32 | 4 | 0.5 | 4 | 1 | 0.5 | 8 | 2 | 2 | 4 | 2 | 4
8 | C[n+]1cc(-c2ccccc2)c(/C=C/c2ccc(O)cc2)cc1-c1ccc(C(C)(C)C)cc1.[I-] | 4 | 64 | 4 | 1 | 64 | > 64 | 4 | 0.5 | 4 | 1 | 0.125 | 8 | 2 | 4 | 4 | 2 | 4
9 | CC(C)c1ccc(/C=C/c2cc(-c3ccc(C(C)(C)C)cc3)[n+](C)cc2-c2ccccc2)cc1.[I-] | 1 | 4 | 1 | 0.25 | 2 | 8 | 1 | 0.5 | 1 | 0.125 | 0.125 | 1 | 2 | 0.25 | 0.5 | 4 | 1
10 | C[n+]1cc(-c2ccccc2)cc(/C=C/c2ccc(Br)cc2)c1-c1ccccc1.[I-] | 16 | > 64 | 16 | 4 | 64 | 64 | 16 | 2 | 8 | 2 | 1 | 8 | 4 | 8 | 16 | 4 | 16
11 | C=CC1=C(C(=O)O)N2C(=O)[C@@H](NC(=O)/C(=N\OCC(=O)O)c3csc(N)n3)[C@H]2SC1 [CEFIXIME] | > 64 | < 0.062 | > 64 | 4 (≈ 8.82 µM) | < 0.062 | > 64 | > 64 | 8 (≈ 17.6 µM) | > 64 | 2 (≈ 4.41 µM) | 1 (≈ 2.21 µM) | 32 (≈ 70.6 µM) | < 0.062 | > 64 | > 64 | < 0.062 | > 64

— ChEMBL document CHEMBL5537115, “New broad-spectrum and potent antibacterial agents with dual-targeting mechanism: Promoting FtsZ polymerization and disrupting bacterial membranes” (Eur J Med Chem, 2024)
